Test results as given in US20080058213A1, “Benzoxazole Compounds” (priority 2004, published 2008).

Experiments:
Assay type in all cases: in vivo
soybean [1] = test: Soil treatment test for upland field (Test Example 2): phytotoxicity to soybean; details: soil treatment before germination, examined after 3 weeks
[2] = test system: Monochoria (Monochoria vaginalis); test: Weed control test for paddy field (Test Example 1): Monochoria; details: paddy pots, treated at 1.0 leaf stage of barnyard grass, examined after 3 weeks
Description: (§1) Paddy field soil was filled in 1/10,000 are pots, kneaded with adequate amounts of water and chemical fertilizer, seeded with barnyard grass (Echinochloa crusgalli), Monochoria (Monochoria vaginalis), Japanese bulrush (Scirpus juncoides) and flat sedge (Cyperus serotinus), and further transplanted with 2.0 leaf stage of rice plant. The pots were maintained under the water-filled condition to a depth of 3 cm.
(§2) Wettable powders containing the compounds (1) as identified in Table 1, which were formulated following Production Example 2, were diluted with adequate amount of water and applied to the pots dropwise with pippet at a prescribed dose of the active ingredients per are, at 1.0 leaf stage of the barnyard grass.
(§3) After placing the pots in a glasshouse which was controlled at an average temperature of 25° C. for 3 weeks, herbicidal effect was examined.
(§4) Evaluation of the herbicidal effect is shown in the following six grades, by comparing the condition of untreated control and growth inhibition (%): • 0: 0%-less than 20% • 1: 20%-less than 40% • 2: 40%-less than 60% • 3: 60%-less than 80% • 4: 80%-less than 100% • 5: 100%.

[3] = test system: common lambsquaters (Chenopodium album); test: Soil treatment test for upland field (Test Example 2): common lambsquaters; details: soil treatment before germination, examined after 3 weeks
In short: (§5)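 Upland soil in 1/3,000 are pots was seeded and covered; compounds formulated as wettable powders, diluted with water to the prescribed active-ingredient dose, were sprayed uniformly onto the soil surface pre-emergence at 15 liters per are. After 3 weeks in a glasshouse at 25° C average, growth inhibition versus untreated control was graded 0–5.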

[4] = test system: velvetleaf (Abutilon theophrasti); test: Soil treatment test for upland field (Test Example 2): velvetleaf; details: soil treatment before germination, examined after 3 weeks
In short: as §5

[5] = test system: flat sedge (Cyperus serotinus); test: Weed control test for paddy field (Test Example 1): flat sedge; details: paddy pots, treated at 1.0 leaf stage of barnyard grass, examined after 3 weeks
Description: as §1, §2, §3, §4

southern crabgrass = test: Foliage treatment test for upland field (Test Example 3): southern crabgrass; details: foliage treatment at 1.0-2.0 leaf stage of southern crabgrass, examined after 3 weeks
In short: (§6)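 Weeds were sown in compost-soil pots in a 25° C glasshouse. Wettable-powder formulations, diluted in water to the prescribed active-ingredient dose, were sprayed at 15 liters per are when southern crabgrass reached the 1.0-2.0 leaf stage. After 3 weeks, growth inhibition versus untreated control was scored 0 (under 20%) to 5 (100%).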

common lambsquaters = test: Foliage treatment test for upland field (Test Example 3): common lambsquaters; details: foliage treatment at 1.0-2.0 leaf stage of southern crabgrass, examined after 3 weeks
In short: as §6

soybean [6] = test: Foliage treatment test for upland field (Test Example 3): phytotoxicity to soybean; details: foliage treatment at 1.0-2.0 leaf stage of southern crabgrass, examined after 3 weeks
In short: (§7)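 Crops sown in compost-mixed soil pots, kept in a glasshouse at 25° C. average. Effect scored after 3 weeks versus untreated control on a 0–5 scale (0 normal growth, 5 complete kill).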

rice plant = test: Weed control test for paddy field (Test Example 1): phytotoxicity to rice plant; details: paddy pots, treated at 1.0 leaf stage of barnyard grass, examined after 3 weeks
Description: as §1, §2, §3
Evaluation of phytotoxicity is shown in the following six grades, as compared with the condition of untreated control: • 0: normal growth • 1: little damaged • 2: low damaged • 3: medium damaged • 4: serious damaged • 5: complete killed.

[7] = test system: southern crabgrass (Digitaria ciliaris); test: Soil treatment test for upland field (Test Example 2): southern crabgrass; details: soil treatment before germination, examined after 3 weeks
In short: as §5

[8] = test system: Japanese bulrush (Scirpus juncoides); test: Weed control test for paddy field (Test Example 1): Japanese bulrush; details: paddy pots, treated at 1.0 leaf stage of barnyard grass, examined after 3 weeks
Description: as §1, §2, §3, §4

corn [9] = test: Soil treatment test for upland field (Test Example 2): phytotoxicity to corn; details: soil treatment before germination, examined after 3 weeks
[10] = test system: slender amaranth (Amaranthus viridis); test: Soil treatment test for upland field (Test Example 2): slender amaranth; details: soil treatment before germination, examined after 3 weeks
In short: as §5

wheat [11] = test: Foliage treatment test for upland field (Test Example 3): phytotoxicity to wheat; details: foliage treatment at 1.0-2.0 leaf stage of southern crabgrass, examined after 3 weeks
In short: as §7

wheat [12] = test: Soil treatment test for upland field (Test Example 2): phytotoxicity to wheat; details: soil treatment before germination, examined after 3 weeks
slender amaranth = test: Foliage treatment test for upland field (Test Example 3): slender amaranth; details: foliage treatment at 1.0-2.0 leaf stage of southern crabgrass, examined after 3 weeks
In short: as §6

common purslane = test: Foliage treatment test for upland field (Test Example 3): common purslane; details: foliage treatment at 1.0-2.0 leaf stage of southern crabgrass, examined after 3 weeks
In short: as §6

[13] = test system: common purslane (Portulaca oleracea); test: Soil treatment test for upland field (Test Example 2): common purslane; details: soil treatment before germination, examined after 3 weeks
In short: as §5

corn [14] = test: Foliage treatment test for upland field (Test Example 3): phytotoxicity to corn; details: foliage treatment at 1.0-2.0 leaf stage of southern crabgrass, examined after 3 weeks
In short: as §7

[15] = test system: barnyard grass (Echinochloa crusgalli); test: Weed control test for paddy field (Test Example 1): barnyard grass; details: paddy pots, treated at 1.0 leaf stage of barnyard grass, examined after 3 weeks
Description: as §1, §2, §3, §4

velvetleaf = test: Foliage treatment test for upland field (Test Example 3): velvetleaf; details: foliage treatment at 1.0-2.0 leaf stage of southern crabgrass, examined after 3 weeks
In short: as §6

CCOC/C(=C\c1cccc(C(F)(F)F)c1)c1nc2cc(Cl)ccc2o1 [Compound 11]
1: Phytotoxicity soybean (soybean [6]; dose 5 g ai/a) | Phytotoxicity Rice plant (rice plant; dose 2.5 g ai/a) | Phytotoxicity Rice plant (rice plant; dose 5 g ai/a) | Phytotoxicity corn (corn [9]; dose 2.5 g ai/a) | Phytotoxicity corn (corn [9]; dose 5 g ai/a) | Phytotoxicity wheat (wheat [11]; dose 2.5 g ai/a) | Phytotoxicity wheat (wheat [11]; dose 5 g ai/a) | Phytotoxicity corn (corn [14]; dose 5 g ai/a)
4 (80%-less than 100%): Herbicidal Effect velvetleaf ([4]; dose 5 g ai/a) | Herbicidal Effect Japanese bulrush ([8]; dose 2.5 g ai/a)
5 (100%): Herbicidal Effect Monochoria vaginalis ([2]; dose 2.5 g ai/a) | Herbicidal Effect Monochoria vaginalis ([2]; dose 5 g ai/a) | Herbicidal Effect common lambsquaters ([3]; dose 2.5 g ai/a) | Herbicidal Effect common lambsquaters ([3]; dose 5 g ai/a) | Herbicidal Effect Flat sedge ([5]; dose 5 g ai/a) | Herbicidal Effect southern crabgrass (southern crabgrass; dose 2.5 g ai/a) | Herbicidal Effect southern crabgrass (southern crabgrass; dose 5 g ai/a) | Herbicidal Effect Common lambsquatters (common lambsquaters; dose 2.5 g ai/a) | Herbicidal Effect Common lambsquatters (common lambsquaters; dose 5 g ai/a) | Herbicidal Effect southern crabgrass ([7]; dose 2.5 g ai/a) | Herbicidal Effect southern crabgrass ([7]; dose 5 g ai/a) | Herbicidal Effect Japanese bulrush ([8]; dose 5 g ai/a) | Herbicidal Effect slender amaranth ([10]; dose 2.5 g ai/a) | Herbicidal Effect slender amaranth ([10]; dose 5 g ai/a) | Herbicidal Effect slender amaranth (slender amaranth; dose 2.5 g ai/a) | Herbicidal Effect slender amaranth (slender amaranth; dose 5 g ai/a) | Herbicidal Effect common purslane (common purslane; dose 2.5 g ai/a) | Herbicidal Effect common purslane (common purslane; dose 5 g ai/a) | Herbicidal Effect common purslane ([13]; dose 2.5 g ai/a) | Herbicidal Effect common purslane ([13]; dose 5 g ai/a) | Herbicidal Effect Barnyard grass ([15]; dose 2.5 g ai/a) | Herbicidal Effect Barnyard grass ([15]; dose 5 g ai/a) | Herbicidal Effect velvetleaf (velvetleaf; dose 2.5 g ai/a) | Herbicidal Effect velvetleaf (velvetleaf; dose 5 g ai/a)
0: Phytotoxicity soybean (soybean [1]; dose 2.5 g ai/a) | Phytotoxicity soybean (soybean [1]; dose 5 g ai/a) | Phytotoxicity wheat (wheat [12]; dose 2.5 g ai/a) | Phytotoxicity wheat (wheat [12]; dose 5 g ai/a)
2: Phytotoxicity soybean (soybean [6]; dose 2.5 g ai/a) | Phytotoxicity corn (corn [14]; dose 2.5 g ai/a)
3 (60%-less than 80%): Herbicidal Effect velvetleaf ([4]; dose 2.5 g ai/a) | Herbicidal Effect Flat sedge ([5]; dose 2.5 g ai/a)

COCC(=Cc1cccc(C(F)(F)F)c1)c1nc2cc(Br)ccc2o1 [Compound 39]
4 (80%-less than 100%): Herbicidal Effect velvetleaf ([4]; dose 2.5 g ai/a) | Herbicidal Effect southern crabgrass (southern crabgrass; dose 2.5 g ai/a) | Herbicidal Effect southern crabgrass ([7]; dose 2.5 g ai/a) | Herbicidal Effect Japanese bulrush ([8]; dose 5 g ai/a) | Herbicidal Effect velvetleaf (velvetleaf; dose 2.5 g ai/a)
0: Phytotoxicity soybean (soybean [1]; dose 2.5 g ai/a) | Phytotoxicity Rice plant (rice plant; dose 2.5 g ai/a) | Phytotoxicity Rice plant (rice plant; dose 5 g ai/a) | Phytotoxicity corn (corn [9]; dose 2.5 g ai/a) | Phytotoxicity wheat (wheat [11]; dose 2.5 g ai/a) | Phytotoxicity wheat (wheat [12]; dose 2.5 g ai/a) | Phytotoxicity wheat (wheat [12]; dose 5 g ai/a) | Phytotoxicity corn (corn [14]; dose 2.5 g ai/a)
2 (40%-less than 60%): Herbicidal Effect Flat sedge ([5]; dose 2.5 g ai/a)
3 (60%-less than 80%): Herbicidal Effect Flat sedge ([5]; dose 5 g ai/a) | Herbicidal Effect Japanese bulrush ([8]; dose 2.5 g ai/a)
1: Phytotoxicity soybean (soybean [1]; dose 5 g ai/a) | Phytotoxicity soybean (soybean [6]; dose 2.5 g ai/a) | Phytotoxicity soybean (soybean [6]; dose 5 g ai/a) | Phytotoxicity corn (corn [9]; dose 5 g ai/a) | Phytotoxicity wheat (wheat [11]; dose 5 g ai/a) | Phytotoxicity corn (corn [14]; dose 5 g ai/a)
5 (100%): Herbicidal Effect Monochoria vaginalis ([2]; dose 2.5 g ai/a) | Herbicidal Effect Monochoria vaginalis ([2]; dose 5 g ai/a) | Herbicidal Effect common lambsquaters ([3]; dose 2.5 g ai/a) | Herbicidal Effect common lambsquaters ([3]; dose 5 g ai/a) | Herbicidal Effect velvetleaf ([4]; dose 5 g ai/a) | Herbicidal Effect southern crabgrass (southern crabgrass; dose 5 g ai/a) | Herbicidal Effect Common lambsquatters (common lambsquaters; dose 2.5 g ai/a) | Herbicidal Effect Common lambsquatters (common lambsquaters; dose 5 g ai/a) | Herbicidal Effect southern crabgrass ([7]; dose 5 g ai/a) | Herbicidal Effect slender amaranth ([10]; dose 2.5 g ai/a) | Herbicidal Effect slender amaranth ([10]; dose 5 g ai/a) | Herbicidal Effect slender amaranth (slender amaranth; dose 2.5 g ai/a) | Herbicidal Effect slender amaranth (slender amaranth; dose 5 g ai/a) | Herbicidal Effect common purslane (common purslane; dose 2.5 g ai/a) | Herbicidal Effect common purslane (common purslane; dose 5 g ai/a) | Herbicidal Effect common purslane ([13]; dose 2.5 g ai/a) | Herbicidal Effect common purslane ([13]; dose 5 g ai/a) | Herbicidal Effect Barnyard grass ([15]; dose 2.5 g ai/a) | Herbicidal Effect Barnyard grass ([15]; dose 5 g ai/a) | Herbicidal Effect velvetleaf (velvetleaf; dose 5 g ai/a)

COCC(=Cc1cccc(C(F)(F)F)c1)c1nc2cc(C(F)(F)F)ccc2o1 [Compound 52]
4 (80%-less than 100%): Herbicidal Effect Flat sedge ([5]; dose 5 g ai/a) | Herbicidal Effect Japanese bulrush ([8]; dose 2.5 g ai/a)
1: Phytotoxicity soybean (soybean [1]; dose 5 g ai/a) | Phytotoxicity soybean (soybean [6]; dose 2.5 g ai/a) | Phytotoxicity Rice plant (rice plant; dose 5 g ai/a) | Phytotoxicity corn (corn [9]; dose 2.5 g ai/a) | Phytotoxicity corn (corn [9]; dose 5 g ai/a) | Phytotoxicity wheat (wheat [11]; dose 2.5 g ai/a) | Phytotoxicity wheat (wheat [11]; dose 5 g ai/a) | Phytotoxicity wheat (wheat [12]; dose 2.5 g ai/a) | Phytotoxicity wheat (wheat [12]; dose 5 g ai/a) | Phytotoxicity corn (corn [14]; dose 2.5 g ai/a) | Phytotoxicity corn (corn [14]; dose 5 g ai/a)
3 (60%-less than 80%): Herbicidal Effect Flat sedge ([5]; dose 2.5 g ai/a)
0: Phytotoxicity soybean (soybean [1]; dose 2.5 g ai/a) | Phytotoxicity Rice plant (rice plant; dose 2.5 g ai/a)
5 (100%): Herbicidal Effect Monochoria vaginalis ([2]; dose 2.5 g ai/a) | Herbicidal Effect Monochoria vaginalis ([2]; dose 5 g ai/a) | Herbicidal Effect common lambsquaters ([3]; dose 2.5 g ai/a) | Herbicidal Effect common lambsquaters ([3]; dose 5 g ai/a) | Herbicidal Effect velvetleaf ([4]; dose 2.5 g ai/a) | Herbicidal Effect velvetleaf ([4]; dose 5 g ai/a) | Herbicidal Effect southern crabgrass (southern crabgrass; dose 2.5 g ai/a) | Herbicidal Effect southern crabgrass (southern crabgrass; dose 5 g ai/a) | Herbicidal Effect Common lambsquatters (common lambsquaters; dose 2.5 g ai/a) | Herbicidal Effect Common lambsquatters (common lambsquaters; dose 5 g ai/a) | Herbicidal Effect southern crabgrass ([7]; dose 2.5 g ai/a) | Herbicidal Effect southern crabgrass ([7]; dose 5 g ai/a) | Herbicidal Effect Japanese bulrush ([8]; dose 5 g ai/a) | Herbicidal Effect slender amaranth ([10]; dose 2.5 g ai/a) | Herbicidal Effect slender amaranth ([10]; dose 5 g ai/a) | Herbicidal Effect slender amaranth (slender amaranth; dose 2.5 g ai/a) | Herbicidal Effect slender amaranth (slender amaranth; dose 5 g ai/a) | Herbicidal Effect common purslane (common purslane; dose 2.5 g ai/a) | Herbicidal Effect common purslane (common purslane; dose 5 g ai/a) | Herbicidal Effect common purslane ([13]; dose 2.5 g ai/a) | Herbicidal Effect common purslane ([13]; dose 5 g ai/a) | Herbicidal Effect Barnyard grass ([15]; dose 2.5 g ai/a) | Herbicidal Effect Barnyard grass ([15]; dose 5 g ai/a) | Herbicidal Effect velvetleaf (velvetleaf; dose 2.5 g ai/a) | Herbicidal Effect velvetleaf (velvetleaf; dose 5 g ai/a)
2: Phytotoxicity soybean (soybean [6]; dose 5 g ai/a)
